Legend:
[1] = system: knee bone marrow lesions (BML); assay: clinical study in knee osteoarthritis with bone marrow lesions, BML size on MRI; assay type: in vivo, human; conditions: 5 mg intravenous; for average BML area decreased as compared to placebo: 6 months; for Change in BML Size / Change in BML Size, Difference from Placebo: baseline to 6 months
Source text: (§1) Some embodiments related to joint pain, bone marrow lesions, and osteoarthritis were conceived as a result of analyzing data from a clinical study. Some of the results of this study were reported by Laslett et al. in Ann Rheum Dis 2012; 71:1322-1328. Some of the description and data reported below was not published prior to filing the present application. Fifty-two (52) patients with clinical knee osteoarthritis and knee bone marrow lesions (BML) were randomized to receive either intravenous zoledronic acid (5 mg) or placebo in a double blind fashion. All patients had to have at least one bone marrow lesion (BML) in the affected knee on magnetic resonance imaging (MRI). All patients had x-ray of the knee for determination of joint space narrowing (JSN), which was graded according to the Osteoarthritis Research Society International (OARSI) atlas. Patients had either no joint space narrowing (OARSI Grade 0), or greater degrees of joint space narrowing (OARSI Grade 1 and Grade 2). Twenty six patients were treated with zoledronic acid (8, 6, and 12 with OARSI Grades 0, 1, and 2, respectively). Twenty six patients received placebo (8, 8, and 10 with OARSI Grades 0, 1 and 2, respectively).
BMLs were evaluated using proton density-weighted fat saturation MR images. BMLs were scored using Osiris software (University of Geneva, Geneva, Switzerland). The maximum size was measured in mm^2 using software cursors applied to the greatest area of each lesion. The lesion with the highest score was used if more than one was present at the same site. Each patient was given a BML score (mm^2) at each of the four sites (medial tibial, medial femoral, lateral tibial, and lateral femoral sites) and these were summed to create a total BML score (mm^2). The change in the total area of BMLs from baseline to 6 months was calculated.

[2] = system: knee pain (knee osteoarthritis and knee bone marrow lesions); assay: clinical study in knee osteoarthritis with bone marrow lesions, VAS pain; assay type: in vivo, human; conditions: 5 mg intravenous; for average VAS scores decreased from baseline: 3 months; for average VAS scores reduced as compared to placebo: three months
Source text: as §1
Pain intensity was assessed at baseline and at three months, using a 100 mm visual analog scale (VAS), with zero representing no pain and 100 representing extreme pain. The change in pain intensity from baseline to 3 months was calculated.

[3] = system: complex regional pain syndrome (CRPS); assay: rat tibia fracture model of CRPS, dosing starting four weeks after fracture; assay type: in vivo
Procedure: A study was performed to evaluate the efficacy of bisphosphonates such as oral zoledronic acid in inhibiting immune responses and pain behavior in a rat fracture model of CRPS.
The effect of orally administered zoledronic acid was examined in the rat tibia fracture model of complex regional pain syndrome (CRPS). CRPS was induced in the rats by fracturing the right distal tibias of the animals and casting the fractured hindpaws for 4 weeks, as described in Guo T Z et al. (Pain. 2004; 108: 95-107).
Starting four weeks after fracture and casting, animals were orally administered either vehicle (control) or zoledronic acid, a dose of 21 mg/kg on the first day and 3 mg/kg/day daily thereafter, or distilled water for 3 weeks (weeks 4-7 post-fracture). Drug was dissolved in distilled water and administered by gavage. Animals were fasted for 4 hours before and 2 hours after dosing. At the end of the 21-day period, casts were removed, and on the following day, the rats were tested for hindpaw pain, edema, and warmth.

in vivo = conditions: beagle, dog, po, 150 mg
Procedure: Tablets were manufactured containing either pure zoledronic acid or the disodium salt of zoledronic acid (disodium zoledronate tetrahydrate). Both types of tablets contained 50 mg of zoledronic acid equivalent per tablet. Identical excipients were used in both types of tablets, with amounts adjusted to account for the difference in molecular weights between the acid and the disodium salt.
Beagle dogs were orally administered tablets containing 150 mg zoledronic acid equivalent either in the form of disodium zoledronate (Group 1) or pure zoledronic acid (Group 2). Each animal was given three 50 mg equivalent tablets (150 mg total), which were administered together. The animal's oral cavity was wetted with water before placing the tablets on the back of the animal's tongue. Animals were fasted before and after dosing. Animals were 6 to 9 months of age and weighed 6 to 10 kg on the day of dosing. There were three dogs per group.
Serial blood samples were collected from each animal by venipuncture of the jugular vein at various points after dosing for measurement of plasma concentrations of zoledronic acid. Blood samples were collected into chilled tubes containing K2EDTA as the anticoagulant. Samples were then centrifuged at approximately 3000 rpm at +4° C. for 10 minutes for plasma derivation. Plasma concentrations of zoledronic acid were measured using an LC/MS/MS method.

[4] = oral 21 mg/kg first day then 3 mg/kg/day, weeks 4-7 post-fracture

SMILES: O=P(O)(O)C(O)(Cn1ccnc1)P(=O)(O)O [zoledronic acid]
- average BML area decreased as compared to placebo ([1]; OARSI Grade 0): approximately 190 mm^2
- average BML area decreased as compared to placebo ([1]; OARSI Grades 1-2): approximately 33 mm^2
- Change in BML Size ([1]; OARSI Grade 0): −244 mm^2
- Change in BML Size, Difference from Placebo ([1]; OARSI Grade 0): −190 mm^2
- Change in BML Size ([1]; OARSI Grades 1-2): −117 mm^2
- Change in BML Size, Difference from Placebo ([1]; OARSI Grades 1-2): −33 mm^2
- average VAS scores decreased from baseline ([2]; OARSI Grade 0): approximately 25 mm
- average VAS scores decreased from baseline ([2]; OARSI Grade 1): ~21 mm
- average VAS scores decreased from baseline ([2]; OARSI Grade 2): 9 mm
- Pain Reduction Compared to Placebo at Three Months, VAS Change ([2]; All patients): −4.8 mm
- Change in VAS Pain Scores at Three Months ([2]; Baseline VAS < 50 mm): −7.3 mm
- Change in VAS Pain Scores at Three Months, Difference from Placebo ([2]; Baseline VAS < 50 mm): −0.6 mm
- Change in VAS Pain Scores at Three Months ([2]; Baseline VAS ≥ 50 mm): −26.2 mm
- Change in VAS Pain Scores at Three Months, Difference from Placebo ([2]; Baseline VAS ≥ 50 mm): −9.0 mm
- Pain Reduction Compared to Placebo at Three Months, VAS Change ([2]; Baseline VAS ≥ 50 mm + OARSI Grade 0): −19.4 mm
- Change in VAS Pain Scores at Three Months ([2]; OARSI Grade 0): −24.6 mm
- Change in VAS Pain Scores at Three Months, Difference from Placebo ([2]; OARSI Grade 0): −15.0 mm
- Change in VAS Pain Scores at Three Months ([2]; OARSI Grades 1-2): −13.2 mm
- Change in VAS Pain Scores at Three Months, Difference from Placebo ([2]; OARSI Grades 1-2): −0.28 mm
- average VAS scores reduced as compared to placebo ([2]; OARSI Grade 0): 15 mm
- average VAS scores reduced as compared to placebo ([2]; OARSI Grades 1-2): 0.28
- average VAS scores reduced as compared to placebo ([2]; baseline VAS 50 mm): 9 mm
- average VAS scores reduced as compared to placebo ([2]; baseline VAS<50 mm): 0.6
- hindlimb weight bearing [3, 4]: over 90 % of normal
- overall effect compared to vehicle treated animals [3, 4]: reversed pain and restored weight bearing
- von Frey pain thresholds for the right (fracture) hindpaw, change as compared to baseline [3, 4]: over 100%
- pain relief, dosing four weeks after fracture versus dosing at the time of injury ([3]; oral, FIG. 18): significantly greater improvement of pain relief
- AUC(0-inf) (in vivo): 2220 ng·h/mL

— patent US20240108641A1, “COMPOSITIONS FOR ORAL ADMINISTRATION OF ZOLEDRONIC ACID OR RELATED COMPOUNDS FOR TREATING DISEASE” (ANTECIP BIOVENTURES II LLC, priority 2012, published 2024)
